From ChEMBL document CHEMBL4800732, “Data for DCP probe TP-040” (2021)
pKi: −log10 of the molar value. Several values for one entry are separate records, joined by “and”; a condition that tells them apart may be missing. Equal values may be shown once.

Key:
Histamine H2 receptor [1] = target: T1, Histamine H2 receptor (Homo sapiens, UniProt P25021); settings: Compound concentration 10.0 uM
[2] = target: T2, 5-hydroxytryptamine receptor 2A (Homo sapiens, UniProt P28223); settings: Compound concentration 10.0 uM
T2 sequence (P28223 whole entry): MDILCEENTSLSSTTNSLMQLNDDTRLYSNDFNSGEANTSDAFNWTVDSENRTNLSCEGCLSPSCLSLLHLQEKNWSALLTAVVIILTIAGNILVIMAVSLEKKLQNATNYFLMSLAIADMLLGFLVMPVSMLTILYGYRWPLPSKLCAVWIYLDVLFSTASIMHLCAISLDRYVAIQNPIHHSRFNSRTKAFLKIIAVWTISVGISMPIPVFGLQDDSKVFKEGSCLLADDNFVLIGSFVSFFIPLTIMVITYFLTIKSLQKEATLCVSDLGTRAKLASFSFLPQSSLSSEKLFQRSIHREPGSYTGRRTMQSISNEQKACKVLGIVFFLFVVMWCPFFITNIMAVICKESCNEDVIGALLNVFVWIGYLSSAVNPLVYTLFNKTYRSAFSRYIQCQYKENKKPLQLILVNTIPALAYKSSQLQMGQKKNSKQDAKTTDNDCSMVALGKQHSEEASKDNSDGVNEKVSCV

[3] = target: T3, Alpha-2B adrenergic receptor (Homo sapiens, UniProt P18089); experiment: GPCRScan assay: inhibition of Alpha2B; set-up: radioligand conc. used [nm] 1.5 – 2.0, parental cells HEKT; settings: for pKi: read-out: Ki
T3 sequence (P18089 whole entry): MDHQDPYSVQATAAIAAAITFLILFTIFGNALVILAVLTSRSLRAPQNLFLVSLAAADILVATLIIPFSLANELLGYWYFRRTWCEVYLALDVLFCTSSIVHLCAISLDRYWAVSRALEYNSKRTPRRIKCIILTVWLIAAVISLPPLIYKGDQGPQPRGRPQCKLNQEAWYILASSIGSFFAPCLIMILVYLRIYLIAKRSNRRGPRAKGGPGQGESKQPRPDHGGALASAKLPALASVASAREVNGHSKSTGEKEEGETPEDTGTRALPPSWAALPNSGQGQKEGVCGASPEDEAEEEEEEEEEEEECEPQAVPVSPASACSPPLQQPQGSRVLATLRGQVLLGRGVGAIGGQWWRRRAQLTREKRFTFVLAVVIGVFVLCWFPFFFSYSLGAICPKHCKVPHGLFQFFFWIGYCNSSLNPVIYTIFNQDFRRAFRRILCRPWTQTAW

[4] = target: Alpha-2A adrenergic receptor (Homo sapiens) (UniProt P08913); settings: Compound concentration 10.0 uM
[5] = target: D(1B) dopamine receptor (Homo sapiens) (UniProt P21918); settings: Compound concentration 10.0 uM
[6] = target: Beta-hexosaminidase subunit beta (Homo sapiens, UniProt P07686); experiment: Enzymatic HEXB assay
[7] = target: D(1A) dopamine receptor (Homo sapiens) (UniProt P21728); settings: Compound concentration 10.0 uM
Sequence of D(1A) dopamine receptor (Homo sapiens) (P21728 whole entry): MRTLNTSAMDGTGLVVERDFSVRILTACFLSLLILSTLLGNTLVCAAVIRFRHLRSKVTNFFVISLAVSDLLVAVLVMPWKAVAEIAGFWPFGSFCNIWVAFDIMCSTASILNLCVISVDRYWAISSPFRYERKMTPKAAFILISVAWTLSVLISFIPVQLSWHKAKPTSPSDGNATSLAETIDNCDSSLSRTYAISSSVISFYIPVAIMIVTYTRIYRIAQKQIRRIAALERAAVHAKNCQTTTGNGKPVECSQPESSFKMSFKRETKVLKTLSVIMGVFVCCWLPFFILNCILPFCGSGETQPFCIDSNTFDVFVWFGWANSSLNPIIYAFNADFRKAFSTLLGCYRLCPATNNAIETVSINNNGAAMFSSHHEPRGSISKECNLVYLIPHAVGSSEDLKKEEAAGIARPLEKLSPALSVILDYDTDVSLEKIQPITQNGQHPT

[8] = target: 5-hydroxytryptamine receptor 1B (Homo sapiens) (UniProt P28222); settings: Compound concentration 10.0 uM
Sequence of 5-hydroxytryptamine receptor 1B (Homo sapiens) (P28222 whole entry): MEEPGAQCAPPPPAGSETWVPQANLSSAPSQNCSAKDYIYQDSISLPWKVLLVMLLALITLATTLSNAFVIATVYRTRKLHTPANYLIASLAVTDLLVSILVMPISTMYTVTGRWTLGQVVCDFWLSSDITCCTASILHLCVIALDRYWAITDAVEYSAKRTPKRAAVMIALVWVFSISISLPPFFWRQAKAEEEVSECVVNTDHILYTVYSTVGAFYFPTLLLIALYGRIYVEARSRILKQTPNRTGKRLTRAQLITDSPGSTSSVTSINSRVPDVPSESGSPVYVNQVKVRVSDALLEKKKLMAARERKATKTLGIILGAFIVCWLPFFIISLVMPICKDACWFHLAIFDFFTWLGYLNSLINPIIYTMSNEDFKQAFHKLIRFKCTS

[9] = target: D(2) dopamine receptor (Homo sapiens) (UniProt P14416); settings: Compound concentration 10.0 uM
Sequence of D(2) dopamine receptor (Homo sapiens) (P14416 whole entry): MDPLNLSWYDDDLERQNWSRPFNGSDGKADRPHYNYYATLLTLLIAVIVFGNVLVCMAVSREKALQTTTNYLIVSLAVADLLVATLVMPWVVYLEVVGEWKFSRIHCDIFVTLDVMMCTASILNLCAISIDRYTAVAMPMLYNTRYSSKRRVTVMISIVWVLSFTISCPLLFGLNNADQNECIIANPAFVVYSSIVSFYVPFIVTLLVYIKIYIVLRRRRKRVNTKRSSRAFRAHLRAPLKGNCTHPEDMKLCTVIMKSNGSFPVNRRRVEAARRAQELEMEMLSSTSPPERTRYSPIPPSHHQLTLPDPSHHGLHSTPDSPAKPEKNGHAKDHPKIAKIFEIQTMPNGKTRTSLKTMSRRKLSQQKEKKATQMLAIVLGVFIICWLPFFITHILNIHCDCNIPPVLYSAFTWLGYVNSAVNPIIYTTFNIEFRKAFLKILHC

[10] = target: Histamine H1 receptor (Homo sapiens) (UniProt P35367); settings: Compound concentration 10.0 uM
[11] = target: Beta-2 adrenergic receptor (Homo sapiens) (UniProt P07550); settings: Compound concentration 10.0 uM
[12] = target: Alpha-1A adrenergic receptor (Homo sapiens) (UniProt P35348); settings: Compound concentration 10.0 uM
[13] = target: Alpha-1D adrenergic receptor (Homo sapiens) (UniProt P25100); settings: Compound concentration 10.0 uM
[14] = target: Beta-1 adrenergic receptor (Homo sapiens) (UniProt P08588); settings: Compound concentration 10.0 uM
[15] = target: T4, 5-hydroxytryptamine receptor 6 (Homo sapiens, UniProt P50406); settings: Compound concentration 10.0 uM
T4 sequence (P50406 whole entry): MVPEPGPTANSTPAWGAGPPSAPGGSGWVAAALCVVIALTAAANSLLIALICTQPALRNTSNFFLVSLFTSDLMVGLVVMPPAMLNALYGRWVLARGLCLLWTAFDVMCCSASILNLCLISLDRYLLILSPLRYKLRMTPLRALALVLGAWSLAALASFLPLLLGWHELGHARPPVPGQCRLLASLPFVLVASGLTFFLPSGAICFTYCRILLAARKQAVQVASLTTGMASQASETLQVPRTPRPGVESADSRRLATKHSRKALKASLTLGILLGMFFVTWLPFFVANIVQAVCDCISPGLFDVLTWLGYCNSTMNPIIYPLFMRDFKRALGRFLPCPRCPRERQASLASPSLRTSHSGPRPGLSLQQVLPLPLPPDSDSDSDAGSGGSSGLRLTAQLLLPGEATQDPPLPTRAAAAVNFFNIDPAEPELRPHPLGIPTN

[16] = target: Alpha-2B adrenergic receptor (Homo sapiens) (UniProt P18089); settings: Compound concentration 10.0 uM
[17] = target: GABA-A receptor; anion channel; experiment: GPCRScan assay: inhibition of GABAA/BZP; format: protein-complex assay, Rattus norvegicus; set-up: radioligand conc. used [nm] 0.6 – 4.0, parental cells brain tissue
[18] = target: Mu-type opioid receptor (Homo sapiens) (UniProt P35372); settings: Compound concentration 10.0 uM
Sequence of Mu-type opioid receptor (Homo sapiens) (P35372 whole entry): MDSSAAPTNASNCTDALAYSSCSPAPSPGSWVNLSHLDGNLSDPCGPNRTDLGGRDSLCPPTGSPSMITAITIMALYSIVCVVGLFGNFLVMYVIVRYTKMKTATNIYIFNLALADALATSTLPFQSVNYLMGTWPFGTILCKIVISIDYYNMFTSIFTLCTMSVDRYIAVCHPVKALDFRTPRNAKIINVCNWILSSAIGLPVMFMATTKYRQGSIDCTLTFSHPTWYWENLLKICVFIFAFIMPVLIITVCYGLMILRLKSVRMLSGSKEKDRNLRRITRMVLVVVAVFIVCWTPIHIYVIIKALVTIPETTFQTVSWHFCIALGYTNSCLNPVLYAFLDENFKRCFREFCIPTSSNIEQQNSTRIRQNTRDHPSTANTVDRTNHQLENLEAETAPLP

[19] = target: Kappa-type opioid receptor (Homo sapiens) (UniProt P41145); settings: Compound concentration 10.0 uM
Sequence of Kappa-type opioid receptor (Homo sapiens) (P41145 whole entry): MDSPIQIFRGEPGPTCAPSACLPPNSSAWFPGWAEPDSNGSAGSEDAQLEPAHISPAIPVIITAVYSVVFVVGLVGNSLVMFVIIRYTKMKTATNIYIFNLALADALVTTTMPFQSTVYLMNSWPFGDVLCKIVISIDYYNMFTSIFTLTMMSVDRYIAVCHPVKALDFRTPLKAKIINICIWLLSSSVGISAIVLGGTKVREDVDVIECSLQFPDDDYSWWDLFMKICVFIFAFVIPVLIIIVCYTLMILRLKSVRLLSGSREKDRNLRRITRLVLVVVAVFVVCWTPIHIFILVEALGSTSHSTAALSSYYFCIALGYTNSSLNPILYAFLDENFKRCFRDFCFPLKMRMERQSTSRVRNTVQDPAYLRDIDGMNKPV

Histamine H3 receptor [20] = target: T5, Histamine H3 receptor (Homo sapiens, UniProt Q9Y5N1); settings: Compound concentration 10.0 uM
T5 sequence (Q9Y5N1 whole entry): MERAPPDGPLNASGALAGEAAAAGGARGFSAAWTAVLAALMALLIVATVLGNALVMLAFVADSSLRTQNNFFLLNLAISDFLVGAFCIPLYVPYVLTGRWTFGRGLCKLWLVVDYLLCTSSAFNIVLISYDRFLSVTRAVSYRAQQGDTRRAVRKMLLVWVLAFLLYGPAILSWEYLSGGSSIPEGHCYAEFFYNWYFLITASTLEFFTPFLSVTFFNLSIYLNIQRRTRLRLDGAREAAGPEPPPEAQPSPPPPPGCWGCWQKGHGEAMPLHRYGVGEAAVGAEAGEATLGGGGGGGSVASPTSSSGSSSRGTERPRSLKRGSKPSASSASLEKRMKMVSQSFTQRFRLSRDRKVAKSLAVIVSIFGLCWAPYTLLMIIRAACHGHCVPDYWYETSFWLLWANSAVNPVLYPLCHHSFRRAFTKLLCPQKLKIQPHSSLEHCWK

Histamine H4 receptor [21] = target: T6, Histamine H4 receptor (Homo sapiens, UniProt Q9H3N8); settings: Compound concentration 10.0 uM
T6 sequence (Q9H3N8 whole entry): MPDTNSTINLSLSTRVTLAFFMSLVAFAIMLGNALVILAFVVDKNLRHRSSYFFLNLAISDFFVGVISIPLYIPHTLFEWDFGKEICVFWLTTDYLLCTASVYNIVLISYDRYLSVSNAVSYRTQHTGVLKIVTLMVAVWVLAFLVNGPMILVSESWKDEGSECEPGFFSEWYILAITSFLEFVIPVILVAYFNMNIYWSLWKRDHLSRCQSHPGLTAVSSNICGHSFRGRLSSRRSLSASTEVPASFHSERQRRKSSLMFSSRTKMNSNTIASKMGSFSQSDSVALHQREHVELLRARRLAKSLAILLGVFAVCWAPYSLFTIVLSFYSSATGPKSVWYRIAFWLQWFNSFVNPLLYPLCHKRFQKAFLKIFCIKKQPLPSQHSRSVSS

Histamine H2 receptor [22] = target: T1, Histamine H2 receptor; experiment: GPCRScan assay: inhibition of H2; set-up: radioligand conc. used [nm] 0.02 – 0.05, parental cells Stable HEK
Histamine H4 receptor [23] = target: T6, Histamine H4 receptor; experiment: GPCRScan assay: inhibition of H4; set-up: radioligand conc. used [nm] 1.0 – 5.0, parental cells HEK T
Protein O-GlcNAcase = Protein O-GlcNAcase (Homo sapiens, UniProt O60502); experiment: Enzymatic OGA assay
[24] = target: Sodium-dependent dopamine transporter (Homo sapiens, UniProt Q01959); experiment: GPCRScan assay: inhibition of DAT; set-up: radioligand conc. used [nm] 3.6 – 16.0, parental cells stable HEK
[25] = target: T4, 5-hydroxytryptamine receptor 6; experiment: GPCRScan assay: inhibition of 5-HT6; set-up: radioligand conc. used [nm] 2.0 – 4.0, parental cells stable HEK
[26] = target: 5-hydroxytryptamine receptor 5A (Homo sapiens, UniProt P47898); experiment: GPCRScan assay: inhibition of 5-HT5A; set-up: radioligand conc. used [nm] 2.0 - 3.3, parental cells Flp-In CHO
Sequence of 5-hydroxytryptamine receptor 5A (P47898 whole entry): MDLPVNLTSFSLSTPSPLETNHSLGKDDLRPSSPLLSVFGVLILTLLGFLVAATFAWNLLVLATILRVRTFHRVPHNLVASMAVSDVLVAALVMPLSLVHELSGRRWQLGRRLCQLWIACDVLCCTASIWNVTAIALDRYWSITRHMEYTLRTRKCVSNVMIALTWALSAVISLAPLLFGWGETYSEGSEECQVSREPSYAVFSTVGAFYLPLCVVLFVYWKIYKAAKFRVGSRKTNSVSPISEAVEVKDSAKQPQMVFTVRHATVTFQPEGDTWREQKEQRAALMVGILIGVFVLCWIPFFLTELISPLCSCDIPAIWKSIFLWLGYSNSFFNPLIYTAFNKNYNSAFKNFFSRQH

[27] = target: T2, 5-hydroxytryptamine receptor 2A; experiment: GPCRScan assay: inhibition of 5-HT2A; set-up: radioligand conc. used [nm] 1.2 – 2.4, parental cells HEKT
[28] = target: 5-hydroxytryptamine receptor 7 (Homo sapiens, UniProt P34969); experiment: GPCRScan assay: inhibition of 5-HT7A; set-up: radioligand conc. used [nm] 5.0 – 6.0, parental cells Stable HEK
[29] = target: Sigma non-opioid intracellular receptor 1 (Homo sapiens, UniProt Q99720); experiment: GPCRScan assay: inhibition of Sigma 1; set-up: radioligand conc. used [nm] 4.0 – 5.0, parental cells HEKT
Sequence of Sigma non-opioid intracellular receptor 1 (Q99720 whole entry): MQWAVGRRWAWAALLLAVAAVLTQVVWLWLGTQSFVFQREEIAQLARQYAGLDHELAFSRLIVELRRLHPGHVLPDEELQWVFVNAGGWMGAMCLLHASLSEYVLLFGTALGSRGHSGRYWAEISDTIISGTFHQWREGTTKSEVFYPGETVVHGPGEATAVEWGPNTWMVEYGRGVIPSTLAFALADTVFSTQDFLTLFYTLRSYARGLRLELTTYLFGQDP

[30] = target: Sigma intracellular receptor 2 (Homo sapiens, UniProt Q5BJF2); experiment: GPCRScan assay: inhibition of Sigma 2; set-up: radioligand conc. used [nm] 5.0, parental cells HEKT
Sequence of Sigma intracellular receptor 2 (Q5BJF2 whole entry): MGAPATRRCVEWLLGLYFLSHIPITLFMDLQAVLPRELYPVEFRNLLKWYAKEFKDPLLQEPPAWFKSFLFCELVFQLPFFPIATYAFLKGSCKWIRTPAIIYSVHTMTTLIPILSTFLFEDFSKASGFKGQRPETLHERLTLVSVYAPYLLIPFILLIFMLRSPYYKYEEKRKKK

[31] = target: Beta-3 adrenergic receptor (Homo sapiens) (UniProt P13945); settings: Compound concentration 10.0 uM
Histamine H3 receptor [32] = target: T5, Histamine H3 receptor; experiment: GPCRScan assay: inhibition of H3; set-up: radioligand conc. used [nm] 0.5 – 1.0, parental cells HEK Flp-In

T1 sequence (P25021 whole entry): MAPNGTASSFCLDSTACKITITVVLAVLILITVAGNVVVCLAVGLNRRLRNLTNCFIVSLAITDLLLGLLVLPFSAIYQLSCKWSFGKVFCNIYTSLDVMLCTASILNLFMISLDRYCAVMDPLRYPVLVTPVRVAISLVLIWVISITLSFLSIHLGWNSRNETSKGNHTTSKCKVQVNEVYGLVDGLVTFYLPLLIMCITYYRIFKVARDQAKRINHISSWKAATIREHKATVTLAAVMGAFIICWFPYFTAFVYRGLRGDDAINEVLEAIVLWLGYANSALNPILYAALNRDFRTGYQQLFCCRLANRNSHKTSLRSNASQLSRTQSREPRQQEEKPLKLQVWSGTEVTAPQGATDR

Question: Which inhibition (Histamine H2 receptor [1]) does the source give for CC1CCN(c2ccnc(NCc3cn(C)cn3)n2)CC1 [TP-040] here?
Answer: The inhibition was 28.6%.

Question: And the inhibition [2]?
Answer: Its inhibition is 33.8%.

Question: What about the pKi [3] of the same compound?
Answer: Its pKi is 5.59.

Question: And the inhibition [4]?
Answer: Its inhibition is 12.8%.

Question: And the inhibition [5]?
Answer: The inhibition was 5.03%.

Question: And the IC50 [6]?
Answer: The IC50 was > 10 µM (not active).

Question: And the inhibition [7]?
Answer: The inhibition was -8.84%.

Question: And the inhibition [8]?
Answer: Its inhibition is 24.4%.

Question: And the inhibition [9]?
Answer: Its inhibition is 4.96%.

Question: And the inhibition [10]?
Answer: The inhibition was 40.1%.

Question: And the inhibition [11]?
Answer: Its inhibition is -3.61%.

Question: And the inhibition [12]?
Answer: Its inhibition is 15.4%.

Question: What about the inhibition [13] of the same compound?
Answer: The inhibition was 25.1%.

Question: And the inhibition [14]?
Answer: The inhibition was 3.97%.

Question: And the inhibition [15]?
Answer: The inhibition was 32.1%.

Question: What about the inhibition [16] of the same compound?
Answer: The inhibition was 56.3%.

Question: And the pKi [17]?
Answer: Its pKi is 6.29.

Question: And the inhibition [18]?
Answer: Its inhibition is 10.8%.

Question: And the inhibition [19]?
Answer: Its inhibition is 36.6%.

Question: And the inhibition (Histamine H3 receptor [20])?
Answer: Its inhibition is 35.1%.

Question: For CN1CCN(c2ccnc(NCCc3ccccc3)n2)CC1 [TP-040n], which inhibition (Histamine H4 receptor [21]) is on record?
Answer: The inhibition was 82.8%.

Question: And the pKi (Histamine H2 receptor [22]; read-out: Ki)?
Answer: Its pKi is 6.83.

Question: What about the Ki (Histamine H2 receptor [22]; read-out: pKi (converted)) of the same compound?
Answer: The Ki was 0.145 µM.

Question: What about the inhibition (Histamine H2 receptor [1]) of the same compound?
Answer: Its inhibition is 95.6%.

Question: What about the pKi (Histamine H4 receptor [23]; read-out: Ki) of the same compound?
Answer: Its pKi is 6.15.

Question: What about the Ki (Histamine H4 receptor [23]; read-out: pKi (converted)) of the same compound?
Answer: The Ki was 0.692 µM.

Question: And the IC50 (Protein O-GlcNAcase)?
Answer: Its IC50 is > 10 µM (not active).

Question: And the pKi ([24]; read-out: Ki)?
Answer: Its pKi is 6.06.

Question: And the Ki ([24]; read-out: pKi (converted))?
Answer: Its Ki is 0.832 µM.

Question: And the inhibition [2]?
Answer: The inhibition was 72.9%.

Question: What about the pKi [3] of the same compound?
Answer: Its pKi is 6.32.

Question: What about the Ki ([3]; read-out: pKi (converted)) of the same compound?
Answer: Its Ki is 0.427 µM.

Question: And the inhibition [4]?
Answer: Its inhibition is 34.6%.

Question: What about the pKi [25] of the same compound?
Answer: Its pKi is 6.22.

Question: And the pKi ([26]; read-out: Ki)?
Answer: The pKi was 5.21.

Question: What about the Ki ([26]; read-out: pKi (converted)) of the same compound?
Answer: The Ki was 5.13 µM.

Question: And the inhibition [7]?
Answer: Its inhibition is 26.5%.

Question: What about the inhibition [8] of the same compound?
Answer: The inhibition was 45.9%.

Question: And the inhibition [9]?
Answer: The inhibition was 20.6%.

Question: What about the inhibition [10] of the same compound?
Answer: Its inhibition is 41.6%.

Question: And the inhibition [11]?
Answer: Its inhibition is -3.49%.

Question: And the pKi ([27]; read-out: Ki)?
Answer: Its pKi is 6.12.

Question: And the Ki ([27]; read-out: pKi (converted))?
Answer: Its Ki is 0.692 µM.

Question: What about the inhibition [12] of the same compound?
Answer: The inhibition was 19.2%.

Question: And the pKi [28]?
Answer: The pKi was 6.48.

Question: What about the inhibition [13] of the same compound?
Answer: Its inhibition is 26%.

Question: And the pKi ([29]; read-out: Ki)?
Answer: The pKi was 6.90.

Question: What about the Ki ([29]; read-out: pKi (converted)) of the same compound?
Answer: The Ki was 0.123 µM.

Question: And the inhibition [14]?
Answer: The inhibition was 6.05%.

Question: What about the inhibition [15] of the same compound?
Answer: Its inhibition is 80.4%.

Question: What about the pKi ([30]; read-out: Ki) of the same compound?
Answer: Its pKi is 5.83.

Question: What about the Ki ([30]; read-out: pKi (converted)) of the same compound?
Answer: Its Ki is 1.45 µM.

Question: What about the inhibition [16] of the same compound?
Answer: Its inhibition is 98%.

Question: What about the inhibition [31] of the same compound?
Answer: The inhibition was 2.45%.

Question: And the inhibition [18]?
Answer: The inhibition was 25.9%.

Question: What about the inhibition [19] of the same compound?
Answer: Its inhibition is 23.7%.

Question: What about the pKi (Histamine H3 receptor [32]; read-out: Ki) of the same compound?
Answer: Its pKi is 7.03 and 7.00.

Question: And the Ki (Histamine H3 receptor [32]; read-out: pKi (converted))?
Answer: Its Ki is 0.0813 µM.

Question: What about the inhibition (Histamine H3 receptor [20]) of the same compound?
Answer: Its inhibition is 86.2%.
